Assays:
[1] = test system: rat model of neuropathic pain; assay: Neuropathic pain model (partial ligation of the sciatic nerve): paw withdrawal to mechanical pressure and cold (10° C.), general observations; format: in vivo; conditions: for changes in contralateral paw withdrawals and latencies: just attained significance at 3 hours on mechanical
Method: (§1) The efficacy of Compounds 1, 2, 3 and 4 was investigated using rat models of neuropathic and/or persistent inflammatory pain.
(§2) Subjects comprised male, Wistar Hanover rats, 6 animals per group (225±2 g for Compound 1 studies and Compound 2 studies; 214±1 g for Compound 3 studies; 236±1 g for Compound 4 studies).
(§3) Vehicle (12% Captisol®; 0.5% w/v HPMC and 0.1% w/v Tween-80; 5 ml/kg via the intraperitoneal route) was prepared using autoclaved deionized water not more than one week prior to use.
(§4) The details of the studies performed are outlined in Table 1.
(§5) The control for the neuropathic pain model was lamotrigine, administered at 30 mg/kg via oral delivery. The control for the inflammatory pain model was diclofenac, administered at 30 mg/kg via oral delivery. Statistical analysis was performed using one-way ANOVA, and comparisons were performed with time-matched vehicle group using Tukey's HSD test wherein * p<0.05, ** p<0.01, *** p<0.001.
(§6) Treatment groups were randomised and blinded. Groups of 6 rats were used.
Neuropathic pain was induced by partial ligation of the sciatic nerve. Briefly, the rats were anaesthetised (isoflurane/O2 inhalation), the left sciatic nerve exposed at mid-thigh level through a small incision and ⅓ to ½ of the nerve thickness tightly ligated within a 7.0 silk suture. The wound was closed with surgical glue. Animals were allowed to recover and tested 12-15 days following surgery.
Withdrawal thresholds or latencies were measured on both the ipsilateral (ligated) and contralateral (non-ligated) paws, prior to (predose) and then up to 24 h following drug or vehicle administration.
Pre-dose behavioural measurements were obtained by measuring paw withdrawals 14 days following nerve ligation; before the initiation of drug treatment. Following treatment, further readings were taken at 1, 3, 6 and 24 hour after administration.
(§7) Mechanical hyperalgesia was examined in a model of neuropathic pain by measuring paw withdrawal thresholds (PWT) to increasing mechanical force applied to the dorsal surface of the rat paw using an Analgesymeter (Ugo-Basile, Milan) equipped with a wedge-shaped probe (area 1.75 mm^2). Cut-off was set at 250 g and the end-point was taken as withdrawal of the hind paw. Both ipsilateral and contralateral paw withdrawal readings were taken.
(§8) Cold sensitivity was assessed using a commercially available cold-plate (Ugo Basile, Milan). The cold plate was allowed to stabilize for 5 minutes at the set temperature prior to testing. Paw withdrawal latencies (PWL) were determined with the cold-plate set at 10° C. The animals were lightly restrained and each hind paw in turn placed onto the surface of the cold-plate. The end point was taken as the withdrawal of the paw and recorded as the withdrawal latency for the ipsilateral and the contralateral paw. A maximum cut-off of 30 seconds was used for each paw.
(§9) In addition to behavioural pain readings, each rat was observed throughout the study for changes in general behaviour.
(§10) Data were expressed as withdrawal threshold (g) or withdrawal latencies (s) and percentage reversals calculated according to the following formula: […]
(§11) Statistical analysis was carried out on withdrawal threshold readings using ANOVA with repeated measures followed by Tukey's HSD test. The level for statistical significance was set as p<0.05.

[2] = test system: rat model of persistent inflammatory pain; assay: Persistent inflammatory pain model (intraplantar FCA): paw withdrawal to mechanical pressure and cold (10° C.), general observations; format: in vivo; conditions: for rats with noticeable flaccidity: 1-6h post-dose; for behavioural changes in the rats (general observations): rat, in vivo; for rats more alert and more vocal than fellow cage-mates: 1-6 h post-dose
Method: as §1, §2, §3, §4, §5, §6
Mechanical hyperalgesia was examined in a model of persistent inflammatory pain. The hyperalgesia was induced by an intraplantar injection (25 μl) of Freund's Complete Adjuvant (FCA) into the left hind paw.
To assess the effect of the test compound, paw withdrawal thresholds or latencies were measured on both the ipsilateral (FCA-injected) and contralateral (non-injected) paws, prior to (naïve) and 24 hours following FCA injection (predose), and then at 1, 3, 6 and 24 hours after drug or vehicle administration.
as §7, §8, §9, §10, §11

[3] = biological target: T1, Human Kv7.2/7.3 heteromeric channels (Homo sapiens, UniProt O43525+O43526); assay: Kv7.2/7.3 patch clamp assay; format: cell-based; conditions: 10 µM concentration (N=3)
T1 construct: expressed in transfected cells
Method: Human Kv7.2/7.3 heteromeric channels were stably expressed in a HEK293 cell line. Cells were plated onto 13 mm plastic dishes and incubated for 1-3 days in a 5% CO2 incubator for conventional whole-cell patch clamp experiments. Electrophysiological recordings were made using an automated patch clamp platform (QPatch, Sophion Biosciences). Internal (pipette) solution contained (in mM): K-Aspartate (130), KCl (15), MgCl2 (5.5), Na2ATP (5), K2PCr (5), EGTA (20), HEPES (10), pH 7.25 with KOH, was used to study Kv7.2/7.3 currents. Cells were superfused at room temperature with a standard physiological solution containing (mM): NaCl (140), KCl (4), CaCl2 (2), MgCl2 (1), glucose (10), HEPES (10), pH 7.35 with NaOH.
Patch pipettes were pulled from borosilicate glass and had tip resistances of 2-4 MW when filled with the above solution. Capacitative transients were compensated electronically from the recordings. However, the voltage drop across the series resistance and the liquid junction potential were not compensated. The series resistance was generally less than 10 MG (n=5 cells), with a mean cell capacity of 25±5 pF.
In some cases, manual patch clamp was carried out using an Axon 200B amplifier (Axon Instruments). The software program pClamp (version 10) from Axon Instruments was used to stimulate and record electrical activity. […]

[4] = Study 1 of each compound (Table 1), 60 mg/kg i.p., 3 hours post-dose
[5] = Study 1 of each compound, 30 mg/kg i.p., 3 hours post-dose
[6] = Study 1 of each compound, 60 mg/kg i.p.
[7] = Study 2, 10 mg/kg i.p., 3 hours post-dose
[8] = Study 2, 30 mg/kg i.p., 3 hours post-dose
[9] = Study 2, 60 mg/kg i.p., 3 hours post-dose
[10] = 10 mg/kg i.p., 3 hours post-dose
[11] = 30 mg/kg i.p., 3 hours post-dose
[12] = 60 mg/kg i.p., 1 hour post-dose
[13] = Study 1, 30 mg/kg i.p., 1 hour post-dose
[14] = Study 1, 60 mg/kg i.p., 1 hour post-dose
[15] = 60 mg/kg i.p., 3 hours post-dose
[16] = 30 mg/kg i.p., time not stated (peak reversal at 1-3 h post-dose)

Structure (SMILES) | reversal of cold sensitivity [1, 4] | reversal of mechanical sensitivity [1, 4] | reversal of cold sensitivity [1, 5] | efficacy at 6 hours post-dose [1, 6] | reversal of cold sensitivity [1, 7] | reversal of mechanical sensitivity [1, 7] | reversal of cold sensitivity [1, 8] | reversal of mechanical sensitivity [1, 8] | reversal of cold sensitivity [1, 9] | reversal of mechanical sensitivity [1, 9] | changes in contralateral paw withdrawals and latencies ([1]; Study 2) | reversal of mechanical sensitivity [2, 10] | reversal of cold sensitivity [2, 11] | reversal of cold sensitivity [2, 12] | effect on Kv7.2/7.3-mediated currents [3] | behavioural changes in the rats (general observations) ([1]; Study 1 of each compound) | reversal of cold sensitivity [2, 15] | reversal of mechanical sensitivity [2, 15] | changes in contralateral paw withdrawals/latencies ([2]; all doses) | behavioural changes in the rats (general observations) [2] | also measured
Cc1ccc(Oc2ncc(N3C(=O)NC(C)(C)C3=O)cn2)c2c1OCC21CC1 [Compound 1, 5,5-dimethyl-3-[2-(7-methylspiro[2H-benzofuran-3,1′-cyclopropane]-4-yl)oxypyrimidin-5-yl]imidazolidine-2,4-dione] | 125% | 68% | 52% | still efficacious | 39% | 31% | 68% | 73% | 76% | 81% | small changes | 64% | 65% | 92% | Neither compound was found to have a significant effect |  |  |  |  |  | statistical activity of the lower dose ([1]; Study 1, 30 mg/kg i.p.): only statistically active against mechanical hyperalgesia; reversal of mechanical sensitivity ([1]; Study 1, 30 mg/kg i.p., 3 hours post-dose): 51%; flaccidity (general observation) ([1]; Study 1, 1 and 3 hour post-dose, both doses): slightly flaccid; rats with mild flaccidity ([1]; Study 2, 30 mg/kg i.p.): 1/6; rats with mild flaccidity ([1]; Study 2, 60 mg/kg i.p.): 2/6; reversal of cold sensitivity [2, 10]: 45%; rats with noticeable flaccidity ([2]; 30 mg/kg i.p.): 2/6; reversal of mechanical sensitivity ([2]; 30 mg/kg i.p., 1 hour post-dose): 74%; animals showing the contralateral paw effect ([2]; 60 mg/kg i.p.): 3/6; changes in contralateral paw withdrawals/latencies ([2]; 60 mg/kg i.p.): Pronounced increases; rats with noticeable flaccidity ([2]; 60 mg/kg i.p.): 4/6; reversal of mechanical sensitivity [2, 12]: 92%; reversal of cold sensitivity ([2]; 60 mg/kg i.p., 6h post-dose): 45%; reversal of mechanical sensitivity ([2]; 60 mg/kg i.p., 6h post-dose): 45%
CC[C@@]1(C)NC(=O)N(c2cnc(Oc3ccc(C)c(OC(F)(F)F)c3)nc2)C1=O [Compound 2, (5R)-5-ethyl-5-methyl-3-[2-({4-methyl-3-[(trifluoromethyl)oxy]phenyl}oxy)-5-pyrimidinyl]-2,4-imidazolidinedione] |  |  | 55% |  | 35% | 31% | 70% | 72% | 95% | 81% | small changes | 46% | 58% | 96% | Neither compound was found to have a significant effect | no apparent behavioural changes | 81% | 67% | No changes | no apparent behavioural changes | reversal of cold sensitivity [1, 13]: 42%; reversal of mechanical sensitivity [1, 13]: 53%; reversal of cold sensitivity [1, 14]: 71%; reversal of mechanical sensitivity [1, 14]: 47%; duration of efficacy ([1]; Study 1, both doses (30 and 60 mg/kg i.p.)): efficacious at 3 hours by not by 6 hours post-dose; behavioural changes in the rats (general observations) ([1]; Study 2): no apparent behavioural changes
Cc1ccc(Oc2ccc(-n3c(C)n[nH]c3=O)cn2)c2c1OCC21CC1 [Compound 3, 5-methyl-4-{6-[(7-methylspiro[1-benzofuran-3,1′-cyclopropan]-4-yl)oxy]pyridin-3-yl}-2,4-dihydro-3H-1,2,4-triazol-3-one] | 52% | 46% |  | activity was still evident |  |  |  |  |  |  |  |  |  |  |  | no behavioural changes noted | 51% | 67% | no significant changes |  | statistical significance against mechanical and cold hyperalgesia ([1]; Compound 3 neuropathic study, 60 mg/kg i.p.): attained statistical significance; changes in contralateral paw withdrawals/latencies ([1]; Compound 3 neuropathic study, 30 and 60 mg/kg i.p.): no significant changes; rats more alert and more vocal than fellow cage-mates ([2]; 30 mg/kg group): 4/6; rats more alert and more vocal than fellow cage-mates ([2]; 60 mg/kg group): 1/6; doses producing a reversal of mechanical or cold sensitivity ([2]; 10, 30 and 60 mg/kg i.p. tested): Only the top dose; reversal at 1 hour post-dose ([2]; 1 hour post-dose): little reversal evident; activity at 6 hours post-dose [2]: activity still evident
CC[C@H]1NC(=O)N(c2ccc(Oc3ccc(C)c4c3C3(CC3)CO4)nc2)C1=O [Compound 4, (5R)-5-ethyl-3-[6-(7-methylspiro[2H-benzofuran-3,1′-cyclopropane]-4-yl)oxy-3-pyridyl]imidazolidine-2,4-dione] |  |  |  |  |  |  |  |  |  |  |  |  |  |  |  |  |  |  | no significant changes | no behavioural changes noted | reversal of cold sensitivity [2, 16]: 55%; reversal of mechanical sensitivity [2, 16]: 50%; activity at 6 hours post-dose [2]: significant activity still evident

Reference: patent US11944623B2, “Modulators of Kv3 channels to treat pain” (Autifony Therapeutics Limited, priority 2015, dated 2024)
